Data on 29 molecules can be found in patent publication US20120220577A1, “GLYCINE B ANTAGONISTS” (Merz Pharma GmbH & Co KgaA, priority 2009, published 2012).

The experiment has as its target T1, glycine binding pocket of the NMDA receptor (Rattus norvegicus, UniProt P35439).
T1 construct: For isolation of the cell membranes, the cortices are homogenized; from tissue; host or cells: rat cerebral cortex membranes (male Sprague-Dawley)
Description: [3H]MDL-105,519 displacement studies (rat cortical membranes). To be noted: displacement of 2 nM [3H]-MDL-105,519, rat cortical membranes; read-out: NMDA-MDL 105519-r-CTX - IC50. The protocol:
Anaesthetised male Sprague-Dawley rats (200-250 g, Janvier, Le Genest-Isle, France) are decapitated and their brains removed rapidly. […] For isolation of the cell membranes, the cortices are homogenized in 20 volumes of ice-cold 0.32 M sucrose (Sigma-Aldrich, Taufkirchen, Germany) using a glass-Teflon homogenizer. The homogenate is centrifuged at 1000×g for 10 minutes, the pellet is discarded and the supernatant centrifuged at 20,000×g for 20 minutes. The resulting pellet is re-suspended in 20 volumes of distilled water and centrifuged for 20 minutes at 8000×g. The supernatant and the buffy coat are then centrifuged three times (48,000×g for 20 minutes) in the presence of 50 mM Tris-HCl, pH 8.0 (assay buffer). All centrifugation steps are carried out at 4° C. After resuspension in 5 volumes of 50 mM Tris-HCl, pH 7.5, the membrane suspension is frozen rapidly at −80° C. On the day of assay, the membranes are thawed and washed four times by resuspension in 50 mM Tris-HCl, pH 7.5, and centrifugation at 48,000×g for 20 minutes. The final pellet is suspended in assay buffer. […] The final protein concentration used for our studies is 400 μg/ml.
A robotic system designed for binding assays (Tecan Deutschland GmbH, Crailsheim, Germany) is loaded with the membrane solution, solutions for bound control (buffer/DMSO 20%), unlabeled glycine (1 mM) for evaluation of non-specific binding, all compounds to be tested (at 20-fold concentrations), radioligand and respective 96-well plates.
The protein/receptor concentration is held constant whereas the amount of specific bound radioligand is determined using increasing concentrations of ligand.
Firstly, the assay plates are loaded with membrane solution and are shaken at 4° C. The mother plates are then prepared by pipetting the compounds into assay buffer/20% DMSO to obtain the desired final concentrations (dose response curve with five different concentrations, e.g. 10, 3, 1, 0.3, and 0.1 μM). After transferring radioligand into the assay plates, the compounds are added (including the bound and the non-specific binding control). The final DMSO concentration is 1%. The assay plates are incubated and shaken at 4° C. for 1 h, before the mixture is exhausted as rapidly as possible via a vacuum manifold using the Multiscreen HTS glass fibre (type B) filter plates (Millipore, Schwalbach, Germany) under a constant vacuum of 450 mbar. The membranes are washed four times with cold assay buffer ([…]). 50 μL of Ultima Gold scintillation cocktail (PerkinElmer, Rodgau-Jügesheim, Germany) is added to the wet filter plates and incubated at room temperature overnight before counting the disintegration per minutes using a liquid scintillation counter (MicroBeta, PerkinElmer, Rodgau-Jügesheim, Germany).
The residual radioactivity after displacement of the test compound (n=5) is then corrected with respect to the set controls.
The term IC50 denotes the point on the concentration scale where inhibition reaches its midpoint. `O=C(O)CC(Cc1ccccc1)NC(=O)COc1cc(C(=O)O)cc2cc(Cl)cc(Cl)c12` (centres unmarked) [Example 37, 4-[(1-Carboxymethyl-2-phenylethylcarbamoyl)-methoxy]-5,7-dichloronaphthalene-2-carboxylic acid]: the half-inhibitory concentration (IC50) was determined as 4780 nM.
In the case of `O=C(O)c1cc(OCC(=O)N2CC(C(=O)O)Oc3ccccc32)c2c(Cl)cc(Cl)cc2c1` (centres unmarked) [Example 43, 4-[2-(3-Carboxy-6,8-dichloronaphthalen-1-yloxy)-acetyl]-3,4-dihydro-2H-benzo[1,4]oxazine-2-carboxylic acid] it was 3070 nM; in that of `O=C(COc1cc(C(=O)O)cc2cc(Cl)cc(Cl)c12)Nc1ccc(CO)cc1` [Example 9, 5,7-Dichloro-4-[(4-hydroxymethyl-phenylcarbamoyl)-methoxy]-naphthalene-2-carboxylic acid], 404 nM.
In the case of `COc1ccc(C(=O)COc2cc(C(=O)O)cc3cc(Cl)cc(Cl)c23)cc1` [Example 4, 5,7-Dichloro-4-[2-(4-methoxyphenyl)-2-oxo-ethoxy]-naphthalene-2-carboxylic acid] it was 6740 nM.
With `N#Cc1cccc(NC(=O)COc2cc(C(=O)O)cc3cc(Cl)cc(Cl)c23)c1` [Example 98, 5,7-Dichloro-4-[(3-cyano-phenylcarbamoyl)-methoxy]-naphthalene-2-carboxylic acid], the IC50 was 1120 nM.
Consider `COC(=O)c1ccccc1NC(=O)COc1cc(C(=O)O)cc2cc(Cl)cc(Cl)c12` [Example 45, 5,7-Dichloro-4-[(2-methoxycarbonyl-phenylcarbamoyl)-methoxy]-naphthalene-2-carboxylic acid], for which the IC50 stood at 4270 nM.
In the case of `CN(C)CCN(C)C(=O)COc1ccccc1NC(=O)COc1cc(C(=O)O)cc2cc(Cl)cc(Cl)c12` [Example 110, 5,7-Dichloro-4-[(2-{[(2-dimethylamino-ethyl)-methyl-carbamoyl]-methoxy}-phenylcarbamoyl)-methoxy]-napthalene-2-carboxylic acid] it was 1310 nM.
For `N#Cc1ccc(CNC(=O)COc2cc(C(=O)O)cc3cc(Cl)cc(Cl)c23)cc1` [Example 117, 5,7-Dichloro-4-[(4-cyano-benzylcarbamoyl)-methoxy]-naphthalene-2-carboxylic acid], the IC50 came to 1940 nM.
On to `O=C(COc1cc(C(=O)O)cc2cc(Cl)cc(Cl)c12)Nc1ccccn1` [Example 129, 5,7-Dichloro-4-(pyridin-2-ylcarbamoylmethoxy)-naphthalene-2-carboxylic acid], for which the 50% inhibitory concentration (IC50) was 980 nM.
Regarding `O=C(O)COc1ccc(NC(=O)COc2cc(C(=O)O)cc3cc(Cl)cc(Cl)c23)cc1` [Example 44, 4-[(4-Carboxymethoxy-phenylcarbamoyl)-methoxy]-5,7-dichloro-naphthalene-2-carboxylic acid], the half-inhibitory concentration (IC50) stood at 3390 nM.
Take `CN(C(=O)COc1cc(C(=O)O)cc2cc(Cl)cc(Cl)c12)c1cccc(CC(=O)O)c1` [Example 40, 4-{[(3-Carboxymethylphenyl)-methyl-carbamoyl]-methoxy}-5,7-dichloronaphthalene-2-carboxylic acid]: the IC50 turned out to be 3580 nM.
For `CNC(=O)COc1cc(CN)ccc1NC(=O)COc1cc(C(=O)O)cc2cc(Cl)cc(Cl)c12` [Example 116, 4-[(4-Aminomethyl-2-methylcarbamoylmethoxy-phenylcarbamoyl)-methoxy]-5,7-dichloro-naphthalene-2-carboxylic acid] the value was 297 nM; for `O=C(COc1cc(C(=O)O)cc2cc(Cl)cc(Cl)c12)N[C@@H]1C[C@H]1c1ccccc1` (relative stereo) [Example 66, 5,7-Dichloro-4-[(trans-2-phenyl-cyclopropylcarbamoyl)-methoxy]-naphthalene-2-carboxylic acid], 935 nM; for `COc1cccc(CO)c1NC(=O)COc1cc(C(=O)O)cc2cc(Cl)cc(Cl)c12` [Example 76, 5,7-Dichloro-4-[(2-hydroxymethyl-6-methoxy-phenylcarbamoyl)-methoxy]-naphthalene-2-carboxylic acid], 1220 nM.
In the case of `CNCc1ccc(NC(=O)COc2cc(C(=O)O)cc3cc(Cl)cc(Cl)c23)c(OCC(=O)O)c1` [Example 111, 4-[(2-Carboxymethoxy-4-methylaminomethyl-phenylcarbamoyl)-methoxy]-5,7-dichloro-naphthalene-2-carboxylic acid] it was 24 nM.
For `CN(C)C(=O)COc1ccccc1NC(=O)COc1cc(C(=O)O)cc2cc(Cl)cc(Cl)c12` [Example 102, 5,7-Dichloro-4-[(2-dimethylcarbamoylmethoxy-phenylcarbamoyl)-methoxy]-naphthalene-2-carboxylic acid] the value was 134 nM.
As for `O=C(COc1cc(C(=O)O)cc2cc(Cl)cc(Cl)c12)N[C@@H](CO)c1ccccc1` [Example 29], the IC50 stood at 983 nM.
`NC(=O)COc1cccc(NC(=O)COc2cc(C(=O)O)cc3cc(Cl)cc(Cl)c23)c1` [Example 93, 4-[(3-Carbamoylmethoxy-phenylcarbamoyl)-methoxy]-5,7-dichloro-naphthalene-2-carboxylic acid]: the concentration for half-maximal inhibition (IC50) is 520 nM.
On to `O=C(COc1cc(C(=O)O)cc2cc(Cl)cc(Cl)c12)NCc1ccccc1OC(F)(F)F` [Example 61, 5,7-Dichloro-4-[(2-trifluoromethoxy-benzylcarbamoyl)-methoxy]-naphthalene-2-carboxylic acid], for which the half-inhibitory concentration (IC50) was 1560 nM.
For `CN(C)CCOc1ccc(NC(=O)COc2cc(C(=O)O)cc3cc(Cl)cc(Cl)c23)cc1CO` [Example 87, 5,7-Dichloro-4-{[4-(2-dimethylamino-ethoxy)-3-hydroxymethyl-phenylcarbamoyl]-methoxy}-naphthalene-2-carboxylic acid] the value was 324 nM; for `CN(C)C(=O)COc1cc(CN)ccc1NC(=O)COc1cc(C(=O)O)cc2cc(Cl)cc(Cl)c12` [Example 123, 4-[(4-Aminomethyl-2-dimethylcarbamoylmethoxy-phenylcarbamoyl)-methoxy]-5,7-dichloronaphthalene-2-carboxylic acid], 113 nM; for `O=C(COc1cc(C(=O)O)cc2cc(Cl)cc(Cl)c12)Nc1ccccc1` [Example 33, 5,7-Dichloro-4-phenylcarbamoylmethoxynaphthalene-2-carboxylic acid], 769 nM.
For `COc1cccc(NC(=O)COc2cc(C(=O)O)cc3cc(Cl)cc(Cl)c23)c1` [Example 6, 5,7-Dichloro-4-[(3-methoxyphenylcarbamoyl)-methoxy]-naphthalene-2-carboxylic acid] the value was 1790 nM.
As for `O=C(COc1cc(C(=O)O)cc2cc(Cl)cc(Cl)c12)NCc1ccccc1OCc1nnn[nH]1` [Example 125, 5,7-Dichloro-4-{[2-(1H-tetrazol-5-ylmethoxy)-benzylcarbamoyl]-methoxy}-naphthalene-2-carboxylic acid], the IC50 turned out to be 254 nM.
Turning to `O=C(COc1cc(C(=O)O)cc2cc(Cl)cc(Cl)c12)Nc1cccc(CO)c1OCCO` [Example 124, 5,7-Dichloro-4-{[2-(2-hydroxy-ethoxy)-3-hydroxymethyl-phenylcarbamoyl]-methoxy}-naphthalene-2-carboxylic acid], the IC50 stood at 428 nM.
For `O=C(COc1cc(C(=O)O)cc2cc(Cl)cc(Cl)c12)Nc1ccc(-c2nnn[nH]2)cc1` [Example 89, 5,7-Dichloro-4-{[4-(1H-tetrazol-5-yl)-phenylcarbamoyl]-methoxy}-naphthalene-2-carboxylic acid] the value was 1260 nM; for `N#CCc1ccc(NC(=O)COc2cc(C(=O)O)cc3cc(Cl)cc(Cl)c23)cc1` [Example 112, 5,7-Dichloro-4-[(4-cyanomethyl-phenylcarbamoyl)-methoxy]-naphthalene-2-carboxylic acid], 637 nM.
Take `O=C(COc1cc(C(=O)O)cc2cc(Cl)cc(Cl)c12)Nc1cccc(CO)c1` [Example 10, 5,7-Dichloro-4-[(3-hydroxymethylphenylcarbamoyl)-methoxy]-naphthalene-2-carboxylic acid]: the IC50 stood at 351 nM.
In the case of `O=C(COc1cc(C(=O)O)cc2cc(Cl)cc(Cl)c12)Nc1cccc2cc(C(=O)O)oc12` [Example 115, 7-[2-(3-Carboxy-6,8-dichloro-naphthalen-1-yloxy)-acetylamino]-benzofuran-2-carboxylic acid] it was 7 nM.
